Test results: patent US20080214611A1, “Pharmaceutical Compositions - 659” (AstraZeneca AB, priority 2007, published 2008)

Assays:
[1] = rat, in vivo, po
Description: (§1) The dispersions prepared according to Example 1 and Example 2 were tested in in vivo rat study together with dispersions comprising crystalline particles (prepared by wet milling) of compound A and B, respectively. The dispersions were orally administered at 100 mmol/kg.
(§2) The open circles illustrate the results obtained upon administration of the dispersions comprising crystalline particles.

[2] = in vivo rat study: plasma concentration after oral administration of amorphous versus wet-milled crystalline dispersions; conditions: 100 mmol/kg, maximum plasma concentration ratio of amorphous dispersion (Example 1 or 2) to wet-milled crystalline dispersion
Description: as §1, §2

| c^maxamorph/c^maxcrystal [2] | SMILES | AUCamorph/AUCcrystal [1] |
| --- | --- | --- |
| – | O=C(NC1CCCCC1O)c1nn(-c2ccc(Cl)cc2Cl)c(-c2ccc(OS(=O)(=O)CCC(F)(F)F)cc2)c1CO (centres unmarked) [Compound A, 1-propanesulfonic acid, 3,3,3-trifluoro-, 4-[1-(2,4-dichlorophenyl)-3-[[(2-hydroxycyclohexyl)amino]carbonyl]-4-(hydroxymethyl)-1H-pyrazol-5-yl]phenyl ester] | 4.8 |
| 10 | O=C(NC1CCCCC1)c1nn(-c2ccc(Cl)cc2Cl)c(-c2ccc(OS(=O)(=O)CCC(F)(F)F)cc2)c1CO [Compound B, 1-propanesulfonic acid, 3,3,3-trifluoro-, 4-[3-[(cyclohexylamino)carbonyl]-1-(2,4-dichlorophenyl)-4-(hydroxymethyl)-1H-pyrazol-5-yl]phenyl ester] | – |
